Reference: ChEMBL document CHEMBL4145686, “Discovery of a Potent and Selective Steroidal Glucocorticoid Receptor Antagonist (ORIC-101)” (J Med Chem, 2018)
pIC50: −log10 of the molar value.

Experiments:
[1] = target: T1, Androgen receptor (Homo sapiens, UniProt P10275); assay: Agonist activity at AR in human LNAR cells assessed as increase in PSA gene expression at 0.1 nM incubated for 24 hrs by RT-qPCR method; type: cell-based; settings: 0.0001 µM
T1 sequence (P10275 whole entry): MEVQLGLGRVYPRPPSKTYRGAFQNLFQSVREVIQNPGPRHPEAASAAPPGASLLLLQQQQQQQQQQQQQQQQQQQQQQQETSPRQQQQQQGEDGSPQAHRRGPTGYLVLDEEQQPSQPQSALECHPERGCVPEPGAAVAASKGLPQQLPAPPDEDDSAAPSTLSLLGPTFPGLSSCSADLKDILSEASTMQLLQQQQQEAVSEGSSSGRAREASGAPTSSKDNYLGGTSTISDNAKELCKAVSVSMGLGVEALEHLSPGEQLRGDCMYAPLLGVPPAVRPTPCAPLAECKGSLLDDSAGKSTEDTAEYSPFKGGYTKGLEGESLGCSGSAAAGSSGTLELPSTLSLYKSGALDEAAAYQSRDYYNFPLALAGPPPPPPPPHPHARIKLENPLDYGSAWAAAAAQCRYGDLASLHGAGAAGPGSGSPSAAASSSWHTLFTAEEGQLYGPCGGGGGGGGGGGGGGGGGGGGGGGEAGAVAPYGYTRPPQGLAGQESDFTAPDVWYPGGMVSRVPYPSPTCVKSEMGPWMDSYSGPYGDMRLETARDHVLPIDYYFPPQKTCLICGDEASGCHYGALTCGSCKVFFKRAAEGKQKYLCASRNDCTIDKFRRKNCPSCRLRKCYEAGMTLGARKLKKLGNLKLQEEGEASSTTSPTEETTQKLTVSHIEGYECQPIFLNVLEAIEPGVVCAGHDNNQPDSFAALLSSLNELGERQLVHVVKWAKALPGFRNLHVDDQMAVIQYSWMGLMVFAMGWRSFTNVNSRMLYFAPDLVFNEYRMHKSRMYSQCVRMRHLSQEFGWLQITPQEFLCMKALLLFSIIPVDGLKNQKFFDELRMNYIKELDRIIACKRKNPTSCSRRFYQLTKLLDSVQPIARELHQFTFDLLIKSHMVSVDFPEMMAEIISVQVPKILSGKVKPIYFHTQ

[2] = target: T1, Androgen receptor; assay: Agonist activity at AR in human LNAR cells assessed as increase in PSA gene expression at 0.1 nM incubated for 24 hrs in presence of 1 uM enzalutamide by RT-qPCR method; type: cell-based; settings: 0.0001 µM
[3] = target: T1, Androgen receptor; assay: Agonist activity at AR in human LNAR cells assessed as increase in TMPRSS2 gene expression at 0.1 nM incubated for 24 hrs in presence of 1 uM enzalutamide by RT-qPCR method; type: cell-based; settings: 0.0001 µM
[4] = target: T1, Androgen receptor; assay: Agonist activity at AR in human LNAR cells assessed as increase in TMPRSS2 gene expression at 0.1 nM incubated for 24 hrs by RT-qPCR method; type: cell-based; settings: 0.0001 µM
[5] = target: T2, Glucocorticoid receptor (Canis lupus familiaris, UniProt A0A8C0QLS2); assay: Antagonist activity at GR in dog PBMC assessed as reduction in dexamethasone-induced GILZ gene expression incubated for 6 hrs by RT-qPCR method; type: cell-based
T2 sequence (A0A8C0QLS2 whole entry): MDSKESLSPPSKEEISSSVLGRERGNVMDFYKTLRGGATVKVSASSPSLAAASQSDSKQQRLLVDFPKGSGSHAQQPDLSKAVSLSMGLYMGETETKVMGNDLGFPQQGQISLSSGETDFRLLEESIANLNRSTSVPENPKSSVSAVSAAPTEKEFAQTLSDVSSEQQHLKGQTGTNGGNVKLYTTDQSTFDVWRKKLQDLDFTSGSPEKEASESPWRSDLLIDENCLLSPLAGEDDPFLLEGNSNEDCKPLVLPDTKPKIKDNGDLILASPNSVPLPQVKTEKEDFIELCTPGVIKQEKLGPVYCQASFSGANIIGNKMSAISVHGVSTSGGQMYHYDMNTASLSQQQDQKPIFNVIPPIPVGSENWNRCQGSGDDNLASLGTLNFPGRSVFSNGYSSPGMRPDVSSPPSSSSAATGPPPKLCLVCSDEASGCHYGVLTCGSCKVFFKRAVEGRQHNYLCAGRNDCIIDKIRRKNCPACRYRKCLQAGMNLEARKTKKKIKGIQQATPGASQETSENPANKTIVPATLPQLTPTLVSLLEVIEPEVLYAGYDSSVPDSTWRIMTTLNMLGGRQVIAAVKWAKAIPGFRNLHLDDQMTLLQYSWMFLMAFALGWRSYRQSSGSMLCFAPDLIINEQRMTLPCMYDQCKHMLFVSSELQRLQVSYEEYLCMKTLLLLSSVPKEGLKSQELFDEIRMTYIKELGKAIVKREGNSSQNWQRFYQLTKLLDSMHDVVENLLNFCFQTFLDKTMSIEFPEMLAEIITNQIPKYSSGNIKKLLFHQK

[6] = Half life in rat at 0.5 mg/kg, iv; type: ADME, organism-based; settings: in vivo
[7] = target: T3, Glucocorticoid receptor (Sus scrofa, UniProt Q9N1U3); assay: Antagonist activity at GR in mini pig PBMC assessed as reduction in dexamethasone-induced GILZ gene expression incubated for 24 hrs by RT-qPCR method; type: cell-based
T3 sequence (Q9N1U3 whole entry): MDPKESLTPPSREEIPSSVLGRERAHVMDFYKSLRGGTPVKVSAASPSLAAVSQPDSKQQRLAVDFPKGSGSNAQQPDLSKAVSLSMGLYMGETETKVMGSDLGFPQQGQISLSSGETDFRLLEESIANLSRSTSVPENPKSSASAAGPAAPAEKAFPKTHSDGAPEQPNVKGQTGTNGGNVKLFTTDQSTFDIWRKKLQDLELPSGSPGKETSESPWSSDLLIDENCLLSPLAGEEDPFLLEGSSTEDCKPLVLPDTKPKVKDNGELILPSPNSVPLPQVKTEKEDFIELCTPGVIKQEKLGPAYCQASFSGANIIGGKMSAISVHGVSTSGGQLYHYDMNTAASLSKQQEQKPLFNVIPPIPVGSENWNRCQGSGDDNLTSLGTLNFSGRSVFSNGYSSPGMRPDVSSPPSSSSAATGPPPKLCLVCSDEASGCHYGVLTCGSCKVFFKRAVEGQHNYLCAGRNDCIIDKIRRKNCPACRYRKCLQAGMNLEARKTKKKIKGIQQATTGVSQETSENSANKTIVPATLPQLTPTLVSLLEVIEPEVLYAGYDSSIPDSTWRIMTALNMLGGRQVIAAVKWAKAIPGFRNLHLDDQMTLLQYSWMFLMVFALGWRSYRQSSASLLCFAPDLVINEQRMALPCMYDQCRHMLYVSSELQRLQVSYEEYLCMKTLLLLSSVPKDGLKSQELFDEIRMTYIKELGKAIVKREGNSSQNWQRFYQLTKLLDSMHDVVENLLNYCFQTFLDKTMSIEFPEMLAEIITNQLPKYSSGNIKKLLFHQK

[8] = target: T4, glucocorticoid receptor (GR) (Homo sapiens, UniProt P04150); assay: Agonist activity at human GR expressed in CHO-K1 cells incubated for 20 hrs by luciferase reporter gene assay relative to dexamethasone; type: cell-based; settings: CHO-K1 cells expressing human GR
T4 sequence (P04150 whole entry): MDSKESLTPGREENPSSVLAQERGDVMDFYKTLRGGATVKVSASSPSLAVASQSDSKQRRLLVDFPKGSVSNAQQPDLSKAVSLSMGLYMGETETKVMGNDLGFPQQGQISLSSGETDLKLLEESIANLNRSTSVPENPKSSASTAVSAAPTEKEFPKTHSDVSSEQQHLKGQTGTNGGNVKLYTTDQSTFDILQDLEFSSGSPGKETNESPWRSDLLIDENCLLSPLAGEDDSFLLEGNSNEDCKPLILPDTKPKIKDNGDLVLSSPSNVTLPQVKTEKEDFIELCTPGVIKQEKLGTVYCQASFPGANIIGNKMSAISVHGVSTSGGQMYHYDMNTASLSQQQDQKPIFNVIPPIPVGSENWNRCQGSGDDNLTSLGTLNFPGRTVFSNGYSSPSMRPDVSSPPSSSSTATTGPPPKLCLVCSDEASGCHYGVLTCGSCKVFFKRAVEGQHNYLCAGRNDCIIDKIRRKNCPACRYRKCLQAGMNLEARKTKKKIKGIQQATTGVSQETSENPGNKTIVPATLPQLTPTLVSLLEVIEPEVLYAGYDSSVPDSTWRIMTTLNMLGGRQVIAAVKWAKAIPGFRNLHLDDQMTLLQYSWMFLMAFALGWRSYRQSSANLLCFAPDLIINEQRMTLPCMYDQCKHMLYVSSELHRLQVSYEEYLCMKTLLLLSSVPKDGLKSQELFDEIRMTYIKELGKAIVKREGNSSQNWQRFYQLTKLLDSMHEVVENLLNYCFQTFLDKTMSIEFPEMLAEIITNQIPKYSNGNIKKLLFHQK

[9] = Cmax in rat at 5 mg/kg, po; type: ADME, organism-based; design: dose 5 mg/kg, route oral; settings: in vivo
[10] = target: T2, Glucocorticoid receptor; assay: Antagonist activity at GR in dog PBMC assessed as reduction in dexamethasone-induced FKBP5 gene expression incubated for 6 hrs by RT-qPCR method; type: cell-based
[11] = target: Cytochrome P450 2C9 (Homo sapiens, UniProt P11712); assay: Inhibition of CYP2C9 (unknown origin) using […] as substrate; type: ADME
[12] = Oral bioavailability in rat at 5 mg/kg; type: ADME, organism-based; settings: in vivo
[13] = Antagonist activity at GR in monkey PBMC assessed as reduction in dexamethasone-induced GILZ gene expression incubated for 6 hrs by RT-qPCR method; type: cell-based; settings: Macaca mulatta
[14] = target: T3, Glucocorticoid receptor; assay: Antagonist activity at GR in mini pig PBMC assessed as reduction in dexamethasone-induced FKBP5 gene expression incubated for 24 hrs by RT-qPCR method; type: cell-based
[15] = Clearance in rat at 0.5 mg/kg, iv; type: ADME, organism-based; settings: in vivo
[16] = Antagonist activity at GR in monkey PBMC assessed as reduction in dexamethasone-induced FKBP5 gene expression incubated for 6 hrs by RT-qPCR method; type: cell-based; settings: Macaca mulatta
[17] = target: T5, Cytochrome P450 2C8 (Homo sapiens, UniProt P10632); assay: Inhibition of CYP2C8 (unknown origin) using […] as substrate; type: ADME
T5 sequence (P10632 whole entry): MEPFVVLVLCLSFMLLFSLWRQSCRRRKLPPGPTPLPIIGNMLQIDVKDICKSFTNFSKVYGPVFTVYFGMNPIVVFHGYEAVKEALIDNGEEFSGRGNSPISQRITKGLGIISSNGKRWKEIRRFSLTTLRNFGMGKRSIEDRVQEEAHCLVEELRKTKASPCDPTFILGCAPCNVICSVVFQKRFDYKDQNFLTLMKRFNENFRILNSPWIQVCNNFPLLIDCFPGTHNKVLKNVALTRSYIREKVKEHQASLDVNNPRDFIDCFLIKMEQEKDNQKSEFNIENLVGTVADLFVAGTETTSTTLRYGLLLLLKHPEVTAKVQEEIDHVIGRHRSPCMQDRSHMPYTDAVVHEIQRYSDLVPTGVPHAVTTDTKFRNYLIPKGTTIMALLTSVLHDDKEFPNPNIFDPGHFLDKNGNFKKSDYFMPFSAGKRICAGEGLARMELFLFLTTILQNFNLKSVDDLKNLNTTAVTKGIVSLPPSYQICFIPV

[18] = AUC in rat at 5 mg/kg, po; type: ADME, organism-based; settings: in vivo
[19] = Volume of distribution at steady state in rat at 0.5 mg/kg, iv; type: ADME, organism-based; settings: in vivo, read-out: Vdss

Cytochrome P450 2C9, sequence (P11712 whole entry): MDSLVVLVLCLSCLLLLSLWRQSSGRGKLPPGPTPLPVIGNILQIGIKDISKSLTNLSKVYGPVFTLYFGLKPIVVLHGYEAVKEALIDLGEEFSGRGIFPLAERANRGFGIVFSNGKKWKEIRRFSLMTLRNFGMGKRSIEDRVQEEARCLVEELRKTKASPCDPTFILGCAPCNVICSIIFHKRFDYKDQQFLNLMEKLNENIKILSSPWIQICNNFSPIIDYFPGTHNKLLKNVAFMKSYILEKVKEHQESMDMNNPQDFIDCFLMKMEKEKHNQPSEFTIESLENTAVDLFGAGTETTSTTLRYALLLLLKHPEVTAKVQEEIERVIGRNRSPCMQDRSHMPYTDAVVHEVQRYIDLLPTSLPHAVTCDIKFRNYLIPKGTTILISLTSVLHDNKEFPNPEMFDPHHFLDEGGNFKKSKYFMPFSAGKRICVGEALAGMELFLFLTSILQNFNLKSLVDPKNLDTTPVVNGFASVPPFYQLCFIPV

**Q.** Which results are given for C[C@]1(O)CC[C@H]2[C@@H]3CCC4=CC(=O)CCC4=C3C=C[C@@]21C [METRIBOLONE]?
**A.** Activity [1]: Active; Activity [2]: Not Active; Activity [3]: Not Active; Activity [4]: Active

**Q.** With CC#C[C@]1(O)CC[C@H]2[C@@H]3CCC4=CC(=O)CCC4=C3[C@@H](c3ccc(N(C)C)cc3)C[C@@]21C [MIFEPRISTONE] as the compound, how does the pIC50 [5] read?
**A.** The pIC50 was 7.49.

**Q.** What about the half-life [6] of the same compound?
**A.** The half-life was 1.6 h.

**Q.** And the pIC50 [7]?
**A.** The pIC50 was 7.59 to 7.96.

**Q.** And the Emax at 20 h [8]?
**A.** The Emax at 20 h was 3.1%.

**Q.** And the Cmax [9]?
**A.** Its Cmax is 24 ng/mL.

**Q.** What about the pIC50 [10] of the same compound?
**A.** Its pIC50 is 7.69.

**Q.** And the pIC50 [11]?
**A.** The pIC50 was 5.31.

**Q.** What about the bioavailability [12] of the same compound?
**A.** Its bioavailability is 6.4%.

**Q.** What about the pIC50 [13] of the same compound?
**A.** Its pIC50 is 7.86.

**Q.** And the pIC50 [14]?
**A.** The pIC50 was 7.71.

**Q.** What about the clearance [15] of the same compound?
**A.** Its clearance is 61.7 mL/min/kg.

**Q.** What about the pIC50 [16] of the same compound?
**A.** Its pIC50 is 7.66.

**Q.** And the pIC50 [17]?
**A.** The pIC50 was 5.82.

**Q.** And the AUC [18]?
**A.** Its AUC is 85 ng·h/mL.

**Q.** And the Vd [19]?
**A.** Its Vd is 4.1 L/kg.
